Reference: patent US9617267B2, “Compounds and methods for kinase modulation, and indications therefor” (Plexxikon Inc., priority 2009, dated 2017)
Where two headings read alike, the source gives them in different places.

Columns and labels:
[1] = target: c-Raf-1 (Homo sapiens, UniProt P04049); assay: c-Raf-1 kinase activity biochemical assay (AlphaScreen, biotin-MEK1 phosphorylation)
Method in brief: (§1)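 Compounds from a 0.1 mM DMSO stock were tested at 8 serially diluted points. Kinase reactions with 100 μM ATP (final) ran 45 min at room temperature, then were stopped with EDTA buffer containing anti-phospho-MEK1/2 antibody plus streptavidin donor and protein A acceptor beads.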

[2] = Relative solubility by turbidity threshold concentration in aqueous buffers (pH 1.5, 4.5, 6.8, 7.4); type: physicochemical; conditions: for turbidity threshold (L, M, H) 1.4: pH 1.4 [sic] (method: SGF pH 1.5); for turbidity threshold (L, M, H) 4.5: pH 4.5 (SIF); for turbidity threshold (L, M, H) 6.8: pH 6.8 (SIF); for turbidity threshold (L, M, H) 7.4: pH 7.4 (HEPES)
Method in brief: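 Solubility class (high >250 μM, moderate 31.3–250 μM, low <31.3 μM) comes from the concentration where absorbance reaches a 0.01 threshold, averaged across 490/535/650 nm. Samples were compound dilutions from DMSO stock, 1 μL into 99 μL buffer at pH 1.5, 4.5, 6.8 or 7.4.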

[3] = target: CYP2C19 (Homo sapiens (Human), UniProt P33261); assay: CYP enzyme inhibition, fluorescent substrate (CEC)
Method in brief: (§2)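 First, 100 mM DMSO stocks are diluted into acetonitrile, then twofold through co-factor mix for 10 points. Next, mixtures are preincubated 10 min at 37 °C.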

[4] = target: B-Raf V600E (Homo sapiens (Human), UniProt P15056, V600E); assay: B-Raf V600E kinase activity biochemical assay (AlphaScreen, biotin-MEK1 phosphorylation); conditions: for IC50: B-Raf V600E; for Biochemical activity ratio V600E/C: ratio of IC50 B-Raf V600E / c-Raf-1
Method in brief: as §1

[5] = target: CYP1A2 (Homo sapiens (Human), UniProt P05177); assay: CYP enzyme inhibition, fluorescent substrate (CEC)
Method in brief: (§3)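 IC50 derived from loss of fluorescent metabolite across a 10-point 1:1 dilution series. CYP2D6: 1.5 pmol enzyme, 1.5 μM AMMC, 30 min at 37 °C, 409/530 nm; CYP1A2: 0.5 pmol, 5 μM CEC, 15 min, 409/460 nm. Compounds pre-incubated 10 min in NADPH-regenerating mix.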

[6] = target: CYP3A4(BQ) (Homo sapiens (Human), UniProt P08684); assay: CYP enzyme inhibition, fluorescent substrate BQ
Method in brief: as §2

[7] = system: B-Raf; assay: B-Raf kinase activity biochemical assay (AlphaScreen, biotin-MEK1 phosphorylation); conditions: for Biochemical activity ratio B/V600E: ratio of IC50 B-Raf / B-Raf V600E; for Biochemical activity ratio B/C: ratio of IC50 B-Raf / c-Raf-1
Method in brief: as §1

[8] = target: B-Raf (Homo sapiens (Human), UniProt P15056); assay: as above; conditions: B-Raf
Method in brief: as §1

[9] = target: CYP2D6 (Homo sapiens (Human), UniProt P10635); assay: CYP enzyme inhibition, fluorescent substrate (AMMC); type: in vitro ADME; conditions: read-out: Cyp IC50 2D6
Method in brief: as §3

[10] = target: CYP2C9 (Homo sapiens (Human), UniProt P11712); assay: CYP enzyme inhibition, fluorescent substrate (MFC)
Method in brief: as §2

[11] = target: CYP3A4(BFC) (Homo sapiens (Human), UniProt P08684); assay: CYP enzyme inhibition, fluorescent substrate BFC
Method in brief: as §2

[12] = read-out: Cyp IC50 2C19, CYP2C19, substrate CEC
[13] = read-out: Cyp IC50 3A4(BQ), CYP3A4, substrate BQ
[14] = read-out: Cyp IC50 2C9, CYP2C9, substrate MFC
[15] = read-out: Cyp IC50 3A4(BFC), CYP3A4, substrate BFC

B-Raf V600E, sequence (P15056 whole entry V600E): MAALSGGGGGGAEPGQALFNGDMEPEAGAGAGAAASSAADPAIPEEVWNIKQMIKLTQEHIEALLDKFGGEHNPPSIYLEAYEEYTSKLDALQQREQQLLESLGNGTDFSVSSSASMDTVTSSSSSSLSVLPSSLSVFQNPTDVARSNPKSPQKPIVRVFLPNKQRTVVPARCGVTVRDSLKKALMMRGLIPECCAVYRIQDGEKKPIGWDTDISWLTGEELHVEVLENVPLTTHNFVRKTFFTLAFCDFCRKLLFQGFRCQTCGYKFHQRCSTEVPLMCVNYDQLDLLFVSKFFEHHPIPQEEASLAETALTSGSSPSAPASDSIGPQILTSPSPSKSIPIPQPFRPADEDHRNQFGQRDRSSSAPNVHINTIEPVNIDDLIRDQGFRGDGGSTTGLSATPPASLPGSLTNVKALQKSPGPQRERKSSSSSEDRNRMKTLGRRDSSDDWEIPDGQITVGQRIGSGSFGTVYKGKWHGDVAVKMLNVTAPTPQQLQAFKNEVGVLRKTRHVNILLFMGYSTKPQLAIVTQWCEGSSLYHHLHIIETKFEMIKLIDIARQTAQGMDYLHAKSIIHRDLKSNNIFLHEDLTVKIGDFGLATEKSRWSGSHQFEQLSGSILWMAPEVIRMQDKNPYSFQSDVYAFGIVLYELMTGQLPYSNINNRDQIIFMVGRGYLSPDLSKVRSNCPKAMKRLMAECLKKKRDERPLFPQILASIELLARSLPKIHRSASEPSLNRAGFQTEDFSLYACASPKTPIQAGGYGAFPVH
CYP3A4(BQ), sequence (P08684 whole entry): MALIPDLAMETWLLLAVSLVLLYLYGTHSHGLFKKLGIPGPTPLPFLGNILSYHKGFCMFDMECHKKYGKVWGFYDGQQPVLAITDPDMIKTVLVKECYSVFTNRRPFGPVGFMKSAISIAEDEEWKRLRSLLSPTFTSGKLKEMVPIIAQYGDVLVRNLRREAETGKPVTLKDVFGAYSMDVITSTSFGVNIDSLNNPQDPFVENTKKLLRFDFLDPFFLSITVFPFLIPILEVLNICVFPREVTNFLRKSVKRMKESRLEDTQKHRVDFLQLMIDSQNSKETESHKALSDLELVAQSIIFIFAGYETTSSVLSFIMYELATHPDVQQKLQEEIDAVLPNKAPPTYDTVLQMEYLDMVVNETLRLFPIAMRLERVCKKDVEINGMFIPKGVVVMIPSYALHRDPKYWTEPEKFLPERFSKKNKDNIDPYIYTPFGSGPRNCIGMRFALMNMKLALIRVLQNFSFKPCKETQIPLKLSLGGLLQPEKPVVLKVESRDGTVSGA
CYP3A4(BFC), sequence (P08684 whole entry): as above
CYP2C9, sequence (P11712 whole entry): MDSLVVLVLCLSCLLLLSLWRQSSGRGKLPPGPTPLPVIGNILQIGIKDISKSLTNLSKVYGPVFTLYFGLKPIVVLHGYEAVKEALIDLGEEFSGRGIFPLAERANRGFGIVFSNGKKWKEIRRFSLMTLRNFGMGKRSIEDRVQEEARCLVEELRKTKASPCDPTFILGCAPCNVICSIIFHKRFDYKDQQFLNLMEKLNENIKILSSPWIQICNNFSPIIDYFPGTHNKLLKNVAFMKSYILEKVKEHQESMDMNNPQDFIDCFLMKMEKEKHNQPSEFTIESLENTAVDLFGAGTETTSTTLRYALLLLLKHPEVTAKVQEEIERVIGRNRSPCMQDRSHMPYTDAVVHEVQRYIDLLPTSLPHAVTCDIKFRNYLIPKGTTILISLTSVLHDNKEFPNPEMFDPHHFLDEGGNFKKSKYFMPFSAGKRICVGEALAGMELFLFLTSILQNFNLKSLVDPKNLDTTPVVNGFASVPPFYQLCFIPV
CYP2D6, sequence (P10635 whole entry): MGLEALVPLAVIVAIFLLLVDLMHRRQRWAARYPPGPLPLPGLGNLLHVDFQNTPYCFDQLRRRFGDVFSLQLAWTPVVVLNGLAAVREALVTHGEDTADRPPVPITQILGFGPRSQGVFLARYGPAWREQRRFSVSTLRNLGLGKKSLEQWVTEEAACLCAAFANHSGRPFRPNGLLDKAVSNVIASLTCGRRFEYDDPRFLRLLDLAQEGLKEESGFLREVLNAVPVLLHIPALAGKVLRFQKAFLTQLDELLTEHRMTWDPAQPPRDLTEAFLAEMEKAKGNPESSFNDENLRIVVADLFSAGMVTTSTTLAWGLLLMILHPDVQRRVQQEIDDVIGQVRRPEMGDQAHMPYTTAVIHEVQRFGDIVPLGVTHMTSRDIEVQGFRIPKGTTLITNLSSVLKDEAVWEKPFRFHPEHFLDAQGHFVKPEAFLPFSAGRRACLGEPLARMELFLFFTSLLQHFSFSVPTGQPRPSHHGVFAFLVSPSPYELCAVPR
B-Raf (Homo sapiens (Human), UniProt P15056), sequence (P15056 whole entry): as the sequence (P15056 whole entry V600E) above, with E600V counted along it
CYP1A2, sequence (P05177 whole entry): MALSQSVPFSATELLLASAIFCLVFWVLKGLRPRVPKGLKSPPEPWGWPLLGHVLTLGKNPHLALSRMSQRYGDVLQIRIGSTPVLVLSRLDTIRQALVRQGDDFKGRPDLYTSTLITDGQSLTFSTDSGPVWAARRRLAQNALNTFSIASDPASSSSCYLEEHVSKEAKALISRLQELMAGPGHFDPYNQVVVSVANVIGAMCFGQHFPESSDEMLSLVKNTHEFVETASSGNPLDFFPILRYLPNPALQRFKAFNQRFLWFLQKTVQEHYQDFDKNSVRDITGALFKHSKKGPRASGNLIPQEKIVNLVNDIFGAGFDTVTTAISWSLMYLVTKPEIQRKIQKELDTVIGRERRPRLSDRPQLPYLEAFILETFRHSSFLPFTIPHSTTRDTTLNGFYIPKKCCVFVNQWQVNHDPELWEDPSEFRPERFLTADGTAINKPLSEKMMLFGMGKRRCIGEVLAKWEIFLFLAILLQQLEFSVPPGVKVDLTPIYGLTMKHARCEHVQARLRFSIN
CYP2C19, sequence (P33261 whole entry): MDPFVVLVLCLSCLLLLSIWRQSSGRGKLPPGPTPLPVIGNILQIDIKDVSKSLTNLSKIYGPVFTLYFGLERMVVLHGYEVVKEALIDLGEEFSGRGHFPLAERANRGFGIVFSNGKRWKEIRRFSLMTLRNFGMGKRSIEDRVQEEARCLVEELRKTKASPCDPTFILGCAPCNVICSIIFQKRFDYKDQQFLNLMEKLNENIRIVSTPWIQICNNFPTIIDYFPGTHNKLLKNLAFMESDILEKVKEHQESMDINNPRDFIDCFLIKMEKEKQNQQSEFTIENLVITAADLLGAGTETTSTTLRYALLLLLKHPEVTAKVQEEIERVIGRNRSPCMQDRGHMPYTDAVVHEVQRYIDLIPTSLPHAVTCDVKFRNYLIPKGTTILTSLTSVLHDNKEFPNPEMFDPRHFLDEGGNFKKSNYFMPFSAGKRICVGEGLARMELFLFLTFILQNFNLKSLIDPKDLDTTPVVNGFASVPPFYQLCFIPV
c-Raf-1, sequence (P04049 whole entry, looked up): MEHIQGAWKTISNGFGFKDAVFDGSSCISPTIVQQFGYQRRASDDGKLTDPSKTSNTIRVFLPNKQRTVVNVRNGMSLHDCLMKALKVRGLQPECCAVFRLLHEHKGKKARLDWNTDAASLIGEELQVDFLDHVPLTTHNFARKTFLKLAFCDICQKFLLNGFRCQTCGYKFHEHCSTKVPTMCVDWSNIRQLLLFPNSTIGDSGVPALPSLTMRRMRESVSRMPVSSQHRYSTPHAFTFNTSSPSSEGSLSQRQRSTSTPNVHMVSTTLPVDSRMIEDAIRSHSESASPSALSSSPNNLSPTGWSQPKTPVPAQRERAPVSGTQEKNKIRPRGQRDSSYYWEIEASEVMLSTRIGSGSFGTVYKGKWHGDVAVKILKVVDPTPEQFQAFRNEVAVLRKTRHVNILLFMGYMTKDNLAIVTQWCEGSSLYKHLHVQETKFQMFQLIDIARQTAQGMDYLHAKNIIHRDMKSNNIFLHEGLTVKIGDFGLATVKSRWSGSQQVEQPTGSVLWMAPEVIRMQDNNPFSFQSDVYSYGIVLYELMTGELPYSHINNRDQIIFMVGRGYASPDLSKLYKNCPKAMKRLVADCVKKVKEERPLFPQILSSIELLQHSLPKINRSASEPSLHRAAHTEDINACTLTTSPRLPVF

SMILES | IC50 [1] [µM] | turbidity threshold (L, M, H) 1.4 [2] | turbidity threshold (L, M, H) 4.5 [2] | turbidity threshold (L, M, H) 6.8 [2] | turbidity threshold (L, M, H) 7.4 [2] | IC50 [3, 12] [µM] | IC50 [4] [µM] | Biochemical activity ratio V600E/C [4] | IC50 ([5]; human, 15 min) [µM] | IC50 [6, 13] [µM] | Biochemical activity ratio B/V600E [7] | Biochemical activity ratio B/C [7] | IC50 [8] [µM] | IC50 [9] [µM] | IC50 [10, 14] [µM] | IC50 [11, 15] [µM] | other results
CC(C)Nc1ncnc2[nH]cc(C(=O)c3c(F)ccc(NS(=O)(=O)c4ccc(C(C)C)cc4)c3F)c12 [P-1044, N-[2,4-Difluoro-3-(4-isopropylamino-7H-pyrrolo[2,3-d]pyrimidine-5-carbonyl)-phenyl]-4-isopropyl-benzenesulfonamide] | < 0.1 | M (moderate solubility if the threshold concentration is 31.3 μM to 250 μM) | M (moderate solubility if the threshold concentration is 31.3 μM to 250 μM) | M (moderate solubility if the threshold concentration is 31.3 μM to 250 μM) | M (moderate solubility if the threshold concentration is 31.3 μM to 250 μM) | < 5 | > 0.1 | >10 | > 10 | > 10 | 0.1-10 | >10 | < 0.1 | > 10 | > 10 | > 10 | –
O=C(c1c(F)ccc(NS(=O)(=O)c2ccc(C(F)(F)F)cc2)c1F)c1c[nH]c2ncnc(N3CCCC3)c12 [P-1061, N-[2,4-Difluoro-3-(4-pyrrolidin-1-yl-7H-pyrrolo[2,3-d]pyrimidine-5-carbonyl)-phenyl]-4-trifluoromethyl-benzenesulfonamide] | > 0.1 | H (high solubility if the threshold concentration is >250 μm) | M (moderate solubility if the threshold concentration is 31.3 μM to 250 μM) | M (moderate solubility if the threshold concentration is 31.3 μM to 250 μM) | H (high solubility if the threshold concentration is >250 μm) | > 10 | > 0.1 | >10 | > 10 | > 10 | 0.1-10 | 0.1-10 | > 0.1 | > 10 | > 10 | > 10 | –
CN(C)CCNc1ncnc2[nH]cc(C(=O)c3c(F)ccc(NS(=O)(=O)c4ccc(C(F)(F)F)cc4)c3F)c12 [P-1059, N-{3-[4-(2-Dimethylamino-ethylamino)-7H-pyrrolo[2,3-d]pyrimidine-5-carbonyl]-2,4-difluoro-phenyl}-4-trifluoromethyl-benzenesulfonamide] | < 0.1 | H (high solubility if the threshold concentration is >250 μm) | M (moderate solubility if the threshold concentration is 31.3 μM to 250 μM) | M (moderate solubility if the threshold concentration is 31.3 μM to 250 μM) | M (moderate solubility if the threshold concentration is 31.3 μM to 250 μM) | > 10 | > 0.1 | >10 | > 10 | > 10 | 0.1-10 | 0.1-10 | > 0.1 | > 10 | > 10 | > 10 | –
CCCS(=O)(=O)Nc1ccc(F)c(C(=O)c2c[nH]c3ncc(Cl)c(C#N)c23)c1F [P-2007, Propane-1-sulfonic acid [3-(5-chloro-4-cyano-1H-pyrrolo[2,3-b]pyridine-3-carbonyl)-2,4-difluoro-phenyl]-amide] | < 0.1 | M (moderate solubility if the threshold concentration is 31.3 μM to 250 μM) | M (moderate solubility if the threshold concentration is 31.3 μM to 250 μM) | M (moderate solubility if the threshold concentration is 31.3 μM to 250 μM) | M (moderate solubility if the threshold concentration is 31.3 μM to 250 μM) | – | < 0.1 | 0.1-10 | – | – | 0.1-10 | 0.1-10 | < 0.1 | > 10 | – | – | IC50 [3]: > 10 µM; IC50 [5]: > 10 µM; IC50 [6]: > 10 µM; IC50 [10]: < 5 µM; IC50 [11]: > 10 µM
